Data from patent US20160256515A1, “COMPOSITIONS AND METHODS FOR PREDICTION AND TREATMENT OF HUMAN CYTOMEGALOVIRUS INFECTIONS” (THE JOHNS HOPKINS UNIVERSITY, priority 2013, published 2016).
Where two headings read alike, the source gives them in different places.

Legend:
[1] = system: NOD2 mRNA; format: cell-based, human; settings: non-infected HFFs, MDP 10 μg/ml
[2] = system: IFN-β; assay: IFN-β response (qPCR, ELISA) after pretreatment and CMV infection; format: cell-based, human
Excerpt: RNA isolation and real time quantitative reverse transcriptase (qRT) PCR: Total RNA was isolated from cultured cells using RNeasy Mini kit (Qiagen, Georgetown, Md.) according to manufacturer's instructions. RevertAid first strand cDNA synthesis kit (Fermentas life sciences, Cromwell Park, Md.) was used to synthesize first strand cDNA from total RNA using oligo-dT primers. Negative reverse-transcriptase (−RT) reactions were included to ensure the specificity of qRT-PCR reactions. Synthesis of first strand cDNA from mRNA template was carried out at 42° C. for 1 h. Quantitative RT-PCR (qRT-PCR) was performed using specific primers and SYBER green (Fermentas life science) with two-step cycling protocol (95° C. for 15 s, 60° C. for 1 min). Reactions were performed in triplicates and GAPDH was used as internal control. mRNA levels in HCMV-infected cells were normalized to the mRNA produced in non-infected HFFs in addition to the internal normalization of each sample to GAPDH. The primers and gene targets appear in Table 1.
ELISA: Human interferon β (IFN-β) specific ELISA kit (PBL Interferon Source) was used to measure levels of secreted IFN-β from HFF-control and HFF-NOD2 overexpressing cells according to manufacturer's instructions.

[3] = system: human CMV (HCMV); assay: CMV plaque numbers in human fibroblasts after pre-treatment; format: cell-based, human cytomegalovirus; settings: pre-treatment of human fibroblasts followed by CMV infection

SMILES: CC(=O)N[C@H]1C(O)O[C@H](CO)[C@@H](O)[C@@H]1O[C@H](C)C(=O)N[C@@H](C)C(=O)N[C@H](CCC(=O)O)C(N)=O (mixture of isomers) [MDP, muramyl dipeptide]
- induction of NOD2 expression ([1]; 12 h): two fold
- induction of NOD2 expression ([1]; 72 h): 1400 fold

SMILES: C[C@H](N)C(=O)N[C@H](CCC(=O)NC(CCCC(N)C(=O)O)C(=O)O)C(=O)O (stereo partly drawn) [tri-DAP, L-Ala-γ-D-Glu-mDAP]
- interferon response (IFN-β) ([2]; pretreatment): enhanced
- mRNA and protein expression of IFN-β ([2]; pretreatment followed by CMV infection, qPCR and ELISA): increased
- IFN-β responses in NOD2 KD cells ([2]; treatment in NOD2 KD cells): can initiate independent IFN-β responses
- plaque numbers [3]: significant reduction
